One assay deals with T1, HIV-1 protease (Human immunodeficiency virus type 1 group M subtype B, UniProt P04585).
T1 construct: purified HIV-1 protease
Description: biochemical. In kind it is biochemical. As to the method:
1. Proteolytic activity of purified HIV-1 protease was routinely measured using the chromogenic assay developed by Richards et al. (J. Biol. Chem. 265: 7733 (1990)). Synthetic peptide His-Lys-Ala-Arg-Val-Leu-Phe (pNO2)-Glu-Ala-Nle-Ser-NH2 (American Peptide Company) was used as the substrate.
2. The assay was carried out in 0.5M NaCl, 50 mM MES pH 5.6, 2% DMSO (dimethylsulfoxide) at 37° C. Cleavage of the scissile bond between leucine and paranitro-phenylalanine (Phe(pNO2)) was assayed by spectrophotometric monitoring of the decrease in absorbance at 305 nm. Initial velocity was determined as the rate of decline of absorbance during the first 100 seconds of reaction.
3. […] Between 15-25 concentrations of inhibitor were added and velocity of reaction was measured at each of the concentrations, as described above.
4. Inhibition constants were calculated using the method of Jackson et al. (Adv. in Enzyme Regulation 22: 187 (1984)).

For a further assay, the system named is HIV-1 (CEM cells). As to the kind of experiment: Anti-HIV MTT assay, inhibition of HIV-induced cell killing, CEM cells. The class given is cell-based, HIV-1 isolates IIIB and/or RF. As to conditions: Human immunodeficiency virus 1, CCRF-CEM, 144 h, CEM cell line (first position), 6 days, 37° C., read-out: Viral CEM. An excerpt: (§1) SRI has an established program for the primary antiviral analysis of compounds in microtiter assays which measure the ability of a selected compound to inhibit HIV-induced cell killing. This assay involves the conversion of the tetrazolium dye MTT to a colored formazan product by mitochondrial enzymes in metabolically active cells. This assay system is presently used at SRI to screen over 30,000 compounds per year. Briefly, the assay involves the infection of CEM or MT2 cells in round bottom 96-well plates. The compound of interest is added just prior to infection. Following 6 days of incubation at 37° C. the plates are stained with MTT. The results of the assay are quantitated spectrophotometrically on a Molecular Devices Vmax plate reader. The data is analyzed by linear regression utilizing an in-house software program to calculate antiviral activity. (IC25, IC50, IC95) and toxicity (TC25, TC50, TC95) as well as other values.
(§2) Primary antiviral assays are routinely performed in CEM or MT-2 cells.
(§3) Drugs will be solubilized in the appropriate vehicle such as distilled water or DMSO if necessary. Latex gloves, lab coats and masks are used during all phases of the handling process to prevent exposure to potentially harmful agents. The drug is prepared at the appropriate concentration and stored at -20° C. until used by the screening laboratory. The first dilution of each compound is made in a dilution tube with medium to yield a concentration two-fold that of the highest test concentration. Sterile titer tubes are then used to make serial one half-log dilutions of each compound. Following drug dilution, the diluted compound is added to the appropriate well of a 96-well microtiter plate. Up to 12 dilutions can be assayed conveniently in triplicate on a single plate with all appropriate controls including cell control, virus control, toxicity control, drug color control, medium control and plastic (background) control. When testing includes only six dilutions, two drugs can be assayed on a single microtiter plate. The drugs are added to the plate in a final volume of 100 microliters.
(§4) During the time the drug dilutions are prepared, cells are washed and counted. Viability is monitored by trypan blue dye exclusion and assays are not performed if the viability falls below 90%. Cells are maintained in an exponential growth phase and are split 1:2 on the day prior to assay to assure exponential growth rate.
(§5) For the primary screen, the cell lines utilized are CEM and MT-2. Unless otherwise indicated, the medium used is RPMI 1640 with 10% heat-inactivated fetal calf serum (FBS), glutamine and antibiotics.
(§6) Cells are propagated at 37° C. in an atmosphere of 5% CO2 in air. The virus employed for this work is HIV-1 isolates IIIB and/or RF, which are prepared by an acute infection process.
(§7) Briefly, virus-infected cells are pelleted on a daily basis beginning at three days post-infection until the virus has killed all of the cells in the culture. Reverse transcriptase activity and p24 ELISA are used to identify pools with the greatest amount of virus.
(§8) These 24-hour harvests are pooled, filtered and frozen at -90° C. Prior to use in the assay, the infectious pool of virus is titered on all available cell lines in order to determine the amount of virus required in the antiviral assay.
(§9) In general, pools produced by the acute infection method require the addition of one microliter of infectious virus per well resulting in the screening of drugs at a multiplicity of infection of 0.01. In this manner enough virus is prepared and frozen to complete over one thousand microtiter plates, allowing the testing of up to two thousand compounds from a single stock of infectious virus. The use of a single stock of virus for a long period of testing has very favorable effects on the repeatability of the assay systems.
(§10) Virus infection of the CEM and MT-2 cells for the antiviral assay is carried out in a bulk infection process. […]
In general terms: Tetrazolium dyes change colour on reduction, which living cells bring about.

A further assay concerns HIV-1 (MT-2 cells). As to the kind of experiment: Anti-HIV MTT assay, inhibition of HIV-induced cell killing, MT-2 cells. As to conditions: Human immunodeficiency virus 1, MT2, 144 h; MT-2 cells (second position), 6 days, 37° C., MTT; read-out: Viral MT-2. The class given is cell-based, HIV-1 isolates IIIB and/or RF.
From the text: as §1, §2, §3, §4, §5, §6, §7, §8, §9, §10

[1] abbreviates: 0.5M NaCl, 50 mM MES pH 5.6, 2% DMSO, 37° C., 200 μM substrate.

For 23 compounds, IC50 and Ki results are on record in patent US5863950A, “HIV protease inhibitors” (Agouron Pharmaceuticals, Inc., priority 1994, dated 1999).

≈ marks a conversion by molar mass, not a printed value. Read-outs that look alike come from different tables or passages of the source. A value given as a limit tells only on which side of the number the result lay.

`CC(C)(C)N(CCO)C(=O)c1ccccc1CCC(O)Cc1ccccc1C(=O)N(CCO)C12CCCCC1CCC2` (centres unmarked) [Example 81]: the IC50 came to 230 nM at HIV-1 protease (setting [1]), 4.39 µg/mL (≈ 7.58 µM) in the assay on HIV-1 (CEM cells) and 5.58 µg/mL (≈ 9.64 µM) with HIV-1 (MT-2 cells). Besides, the Ki on HIV-1 protease (setting [1]) worked out at 64 nM.
Taken in the same sequence, the figures for `CC(C)(C)N(CCO)C(=O)c1ccccc1CCC(O)Cc1ccccc1C(=O)N(CCO)C1(C)CCCC1` (centres unmarked) [Example 5] were 950 nM, 17.4 µg/mL (≈ 32.3 µM), 32 µg/mL (≈ 59.4 µM) and 840 nM.
Taken in the same sequence, the figures for `CCC1(N(CCO)C(=O)c2ccccc2CCC(O)Cc2ccccc2C(=O)N(CCO)C2(c3ccccc3)CCCC2)CCCC1` (centres unmarked) [Example 93] were 104 nM, 1.35 µg/mL (≈ 2.11 µM), 1.67 µg/mL (≈ 2.61 µM) and 2.3 nM.
For `CC(C)(C)N(CCO)C(=O)c1ccccc1CCC(O)Cc1ccccc1C(=O)N(CCO)C(C)(C)c1ccccc1` (centres unmarked) [Example 91] the same measures were 274 nM, 1.95 µg/mL (≈ 3.39 µM), 5.28 µg/mL (≈ 9.19 µM) and 172 nM.
In the case of `CCC1(N(CCO)C(=O)c2ccccc2CCC(O)Cc2ccc(C)cc2C(=O)N(CC2CCCO2)C(C)(C)c2ccccc2)CCCC1` (centres unmarked) [Example 115], the IC50 on HIV-1 protease (setting [1]) came out at 290 nM; with HIV-1 (CEM cells) it was 4.16 µg/mL (≈ 6.22 µM); in the assay on HIV-1 (MT-2 cells), 6.34 µg/mL (≈ 9.48 µM). Besides, on HIV-1 protease (setting [1]), the Ki worked out at 17 nM.
For `CCC1(N(CCO)C(=O)c2ccccc2CCC(O)Cc2ccccc2C(=O)N(CCC(O)CO)C(C)(C)c2ccccc2)CCCC1` (centres unmarked) [Example 100] the same measures were 110 nM, 0.48 µg/mL (≈ 0.729 µM), 1.94 µg/mL (≈ 2.94 µM) and 7 nM.
For `CC(C)(C)N(CCO)C(=O)c1ccccc1CCC(O)Cc1ccccc1C(=O)N(CCO)C(C)(C)c1ccncc1` (centres unmarked) [Example 77] the same measures were 1230 nM, 7.57 µg/mL (≈ 13.1 µM), 16.4 µg/mL (≈ 28.5 µM) and 1010 nM.
Taken in the same sequence, the figures for `CCCC(CC)(CC)N(CCO)C(=O)c1ccccc1CC(O)CCc1ccccc1C(=O)N(CCO)C(C)(C)C` (centres unmarked) [Example 92] were 183 nM, 2.12 µg/mL (≈ 3.73 µM), 5.06 µg/mL (≈ 8.9 µM) and 88 nM.
Consider `CCSc1ccc(CC(O)CCc2ccccc2C(=O)N(CCO)C2(CC)CCCC2)c(C(=O)N(CCO)C(C)(C)c2ccccc2)c1` (centres unmarked) [Example 99], for which the IC50 at HIV-1 protease (setting [1]) stood at 196 nM; with HIV-1 (CEM cells), 1.62 µg/mL (≈ 2.4 µM); with HIV-1 (MT-2 cells) it was 5.75 µg/mL (≈ 8.52 µM). For the same compound, the inhibitory constant (Ki) at HIV-1 protease (setting [1]) is 15 nM.
Taken in the same sequence, the figures for `Cc1ccc(CC(O)CCc2ccccc2C(=O)N(CCO)C(C)(C)c2ccccc2)c(C(=O)N(CCO)C(C)(C)c2ccccc2)c1` (centres unmarked) [Example 80] were 89 nM, 0.53 µg/mL (≈ 0.814 µM), 0.68 µg/mL (≈ 1.04 µM) and 12 nM.
`CCC1(N(CCO)C(=O)c2ccccc2CCC(O)Cc2ccc(C)cc2C(=O)N(CCC(O)CO)C(C)(C)c2ccccc2)CCCC1` (centres unmarked) [Example 104]: the figures for the IC50 at HIV-1 protease, in the assay on HIV-1 (CEM cells) and in the assay on HIV-1 (MT-2 cells) were 81 nM, 0.58 µg/mL (≈ 0.862 µM) and 0.55 µg/mL (≈ 0.817 µM), respectively. In addition, at HIV-1 protease, the affinity corresponds to a Ki of 9.6 nM.
`CCC1(N(CC2COC(C)(C)OC2)C(=O)c2ccccc2CCC(O)Cc2ccc(C)cc2C(=O)N(CC2COC(C)(C)OC2)C(C)(C)c2ccccc2)CCCC1` (centres unmarked) [Example 106]: the IC50 was found to be 67 nM on HIV-1 protease (setting [1]), 3.91 µg/mL (≈ 4.91 µM) with HIV-1 (CEM cells) and 1.7 µg/mL (≈ 2.13 µM) in the assay with HIV-1 (MT-2 cells). Moreover, the inhibition constant (Ki) at HIV-1 protease (setting [1]) came to 3.9 nM.
Taken in the same sequence, the figures for `CC(C)(C)N(CCO)C(=O)c1ccccc1CCC(=O)C(F)(F)c1ccccc1C(=O)N(CCO)C(C)(C)c1ccccc1` [Example 78] were 420 nM, more than 10 µg/mL, 6.64 µg/mL (≈ 10.9 µM) and 320 nM.
For `CCC1(N(CC(CO)CO)C(=O)c2ccccc2CCC(O)Cc2ccc(C)cc2C(=O)N(CC(CO)CO)C(C)(C)c2ccccc2)CCCC1` (centres unmarked) [Example 107] the same measures were 92 nM, 1.44 µg/mL (≈ 2.01 µM), 1.34 µg/mL (≈ 1.87 µM) and 32 nM.
Taken in the same sequence, the figures for `Cc1ccc(CCC(O)Cc2ccccc2C(=O)N(CCO)C(C)(C)c2ccccc2)c(C(=O)N(CCO)C(C)(C)C)c1` (centres unmarked) [Example 62] were 169 nM, 2.86 µg/mL (≈ 4.86 µM), 4.98 µg/mL (≈ 8.46 µM) and 152 nM.
Regarding `CCC1(N(CCO)C(=O)c2ccccc2CCC(O)Cc2ccc(C)cc2C(=O)N(CCO)C2(c3ccccc3)CCCC2)CCCC1` (centres unmarked) [Example 94], the IC50 came to 141 nM against HIV-1 protease (setting [1]), 0.52 µg/mL (≈ 0.794 µM) with HIV-1 (CEM cells) and 1.47 µg/mL (≈ 2.24 µM) in the assay on HIV-1 (MT-2 cells). Also, the inhibition constant Ki on HIV-1 protease (setting [1]) was found to be 0.55 nM.
For `CCC1(N(CCO)C(=O)c2ccccc2CCC(O)Cc2ccc(Cl)cc2C(=O)N(CCO)C(C)(C)c2ccccc2)CCCC1` (centres unmarked) [Example 105] the same measures were 86 nM, 0.47 µg/mL (≈ 0.724 µM), 0.49 µg/mL (≈ 0.755 µM) and 1 nM.
Taken in the same sequence, the figures for `CC(C)(C)N(CCO)C(=O)c1ccccc1CCC(O)Cc1ccccc1C(=O)N(CCO)C(C)(C)c1ccc2ccccc2c1` (centres unmarked) [Example 66] were 250 nM, 4.53 µg/mL (≈ 7.25 µM), 12.7 µg/mL (≈ 20.3 µM) and 145 nM.
Taken in the same sequence, the figures for `CCC1(N(CCO)C(=O)c2ccccc2CCC(O)Cc2ccc(C)cc2C(=O)N(CCO)C(C)(C)c2ccc(OCCCN(CCO)CCO)cc2)CCCC1` (centres unmarked) [Example 113] were 103 nM, 1.73 µg/mL (≈ 2.19 µM), 1.58 µg/mL (≈ 2 µM) and 10 nM.
In the case of `CC(C)(C)NC(=O)c1cc(Sc2ccccc2)ccc1CCC(O)Cc1ccccc1C(=O)N(CCO)C(C)(C)C` (centres unmarked) [Example 73], the IC50 at HIV-1 protease (setting [1]) is 680 nM; in the assay on HIV-1 (CEM cells), more than 10 µg/mL; with HIV-1 (MT-2 cells), more than 10 µg/mL. This compound also registered a Ki at HIV-1 protease (setting [1]) of 717 nM.
For `Cc1ccc(CC(O)CCc2ccccc2C(=O)N(CCO)C(C)(C)C)c(C(=O)N(CCO)C(C)(C)c2ccccc2)c1` (centres unmarked) [Example 74], the IC50 at HIV-1 protease (setting [1]) amounted to 180 nM; in the assay with HIV-1 (CEM cells) it was 3.69 µg/mL (≈ 6.27 µM); in the assay with HIV-1 (MT-2 cells), 5.54 µg/mL (≈ 9.41 µM). The compound also registered an inhibition constant (Ki) at HIV-1 protease (setting [1]) of 21 nM.
Taken in the same sequence, the figures for `CCC1(N(CCO)C(=O)c2ccccc2CCC(O)Cc2ccc(C)cc2C(=O)N(CCO)C(C)(C)c2ccc(OCc3ccc[n+]([O-])c3)cc2)CCCC1` (centres unmarked) [Example 111] were 52 nM, 1.03 µg/mL (≈ 1.37 µM), 1.81 µg/mL (≈ 2.41 µM) and 8 nM.
`CC(C)(C)N(CCO)C(=O)c1ccccc1CCC(O)Cc1ccccc1C(=O)N(CCO)C(C)(C)C` (centres unmarked) [Example 1]: the results for the IC50 against HIV-1 protease, in the assay with HIV-1 (CEM cells) and with HIV-1 (MT-2 cells) were 1030 nM, 18.6 µg/mL (≈ 36.3 µM) and 23 µg/mL (≈ 44.9 µM), respectively. At HIV-1 protease, the inhibitory constant (Ki) came to 835 nM.

In general, Ki refers to a measure of affinity in units of concentration, obtained from inhibition or displacement.
